How the values were obtained:
[1] = Compound cytotoxicity, XTT-based colorimetric assay; type: cell-based; conditions: human; uninfected MT2 cells, day 4, XTT assay
Method: Compound cytotoxicity and the corresponding CC50 values were determined using the same protocol as described in the antiviral assay except that uninfected cells were used. Cytotoxicity was assessed on day 4 in uninfected MT2 cells by using a XTT (2,3-bis[2-Methoxy-4-nitro-5-sulfophenyl]-2H-tetrazolium-5-carboxyanilide inner salt)-based colorimetric assay (Sigma-Aldrich, St Louis, Mo.).

[2] = tested on: recombinant NL4-3 virus (Renilla luciferase) in MT-2 cells; experiment: HIV cell culture assay (antiviral activity, luciferase readout); type: cell-based; conditions: Renilla, NL43
Method: HIV cell culture assay—MT-2 cells, 293T cells and the proviral DNA clone of NL4-3 virus were obtained from the NIH AIDS Research and Reference Reagent Program. MT-2 cells were propagated in RPMI 1640 media supplemented with 10% heat inactivated fetal bovine serum (FBS), 100 μg/ml penicillin G and up to 100 units/mL streptomycin. The 293T cells were propagated in DMEM media supplemented with 10% heat inactivated FBS, 100 μg/mL penicillin G and 100 μg/mL streptomycin. A recombinant NL4-3 proviral clone, in which a section of the nef gene was replaced with the Renilla luciferase gene, was used to make the reference virus used in these studies. The recombinant virus was prepared through transfection of the recombinant NL4-3 proviral clone into 293T cells using Transit-293 Transfection Reagent from Mirus Bio LLC (Madison, Wis.). Supernatent was harvested after 2-3 days and the amount of virus present was titered in MT-2 cells using luciferase enzyme activity as a marker by measuring luciferase enzyme activity. Luciferase was quantitated using the EnduRen Live Cell Substrate from Promega (Madison, Wis.). Antiviral activities of compounds toward the recombinant virus were quantified by measuring luciferase activity in MT-2 cells infected for 4-5 days with the recombinant virus in the presence of serial dilutions of the compound.
The 50% effective concentration (EC50) was calculated by using the exponential form of the median effect equation where (Fa)=1/[1+(ED50/drug conc.)m] (Johnson V A, Byington R T. Infectivity Assay. In Techniques in HIV Research. ed. Aldovini A, Walker B D. 71-76. New York: Stockton Press. 1990).

| SMILES | CC50 at 4 day [1] [nM] | EC50 [2] [nM] |
| --- | --- | --- |
| CS(=O)(=O)Nc1nn(CC(F)F)c2c(-n3c([C@H](Cc4cc(F)cc(F)c4)NC(=O)Cn4nc(C(F)F)c5c4C(F)(F)[C@@H]4C[C@H]54)nc4nc(-c5ccccc5F)ccc4c3=O)ccc(Cl)c12 (atropisomer, axis not shown; (P)) [Example 10, N—((S)-1-((3P)-3-(4-chloro-1-(2,2-difluoroethyl)-3-(methylsulfonamido)-1H-indazol-7-yl)-7-(2-fluorophenyl)-4-oxo-3,4-dihydropyrido[2,3-d]pyrimidin-2-yl)-2-(3,5-difluorophenyl)ethyl)-2-((3bS,4aR)-3-(difluoromethyl)-5,5-difluoro-3b,4,4a,5-tetrahydro-1H-cyclopropa[3,4]cyclopenta[1,2-c]pyrazol-1-yl)acetamide] | > 100 | 0.097 |
| Cn1nc(NS(C)(=O)=O)c2c(Cl)ccc(-n3c([C@H](Cc4cc(F)cc(F)c4)NC(=O)Cn4nc(C(F)F)c5c4C(F)(F)[C@@H]4C[C@H]54)nc4nc(-c5ccc(F)c(C#N)c5)ccc4c3=O)c21 (atropisomer, axis not shown; (P)) [Example 30, N—((S)-1-((3P)-3-(4-chloro-1-methyl-3-(methylsulfonamido)-1H-indazol-7-yl)-7-(3-cyano-4-fluorophenyl)-4-oxo-3,4-dihydropyrido[2,3-d]pyrimidin-2-yl)-2-(3,5-difluorophenyl)ethyl)-2-((3bS,4aR)-3-(difluoromethyl)-5,5-difluoro-3b,4,4a,5-tetrahydro-1H-cyclopropa[3,4]cyclopenta[1,2-c]pyrazol-1-yl)acetamide] | > 100 | 0.078 |
| Cn1nc(NS(C)(=O)=O)c2c(Cl)ccc(-n3c([C@H](Cc4cc(F)cc(F)c4)NC(=O)Cn4nc(C(F)F)c5c4C(F)(F)[C@@H]4C[C@H]54)nc4cc(-c5ccc(F)cc5F)cnc4c3=O)c21 (atropisomer, axis not shown; (P)) [Example 37, N—((S)-1-((3P)-3-(4-chloro-1-methyl-3-(methylsulfonamido)-1H-indazol-7-yl)-7-(2,4-difluorophenyl)-4-oxo-3,4-dihydropyrido[3,2-d]pyrimidin-2-yl)-2-(3,5-difluorophenyl)ethyl)-2-((3bS,4aR)-3-(difluoromethyl)-5,5-difluoro-3b,4,4a,5-tetrahydro-1H-cyclopropa[3,4]cyclopenta[1,2-c]pyrazol-1-yl)acetamide] | > 500 | 2 |
| CS(=O)(=O)Nc1nn(CC(F)(F)F)c2c(-n3c([C@H](Cc4cc(F)cc(F)c4)NC(=O)Cn4nc(C(F)(F)F)c5c4C(F)(F)[C@@H]4C[C@H]54)nc4nc(-c5ccccc5F)ccc4c3=O)ccc(Cl)c12 (atropisomer, axis not shown; (P)) [Example 11, N—((S)-1-((3P)-3-(4-chloro-3-(methylsulfonamido)-1-(2,2,2-trifluoroethyl)-1H-indazol-7-yl)-7-(2-fluorophenyl)-4-oxo-3,4-dihydropyrido[2,3-d]pyrimidin-2-yl)-2-(3,5-difluorophenyl)ethyl)-2-((3bS,4aR)-5,5-difluoro-3-(trifluoromethyl)-3b,4,4a,5-tetrahydro-1H-cyclopropa[3,4]cyclopenta[1,2-c]pyrazol-1-yl)acetamide] | > 100 | 0.15 |
| Cn1nc(NS(C)(=O)=O)c2c(Cl)ccc(-n3c([C@H](Cc4cc(F)cc(F)c4)NC(=O)Cn4nc(C(F)F)c5c4C(F)(F)[C@@H]4C[C@H]54)nc4nc(-c5ccc(Cl)cc5F)ccc4c3=O)c21 (atropisomer, axis not shown; (P)) [Example 8, N—((S)-1-((3P)-3-(4-chloro-1-methyl-3-(methylsulfonamido)-1H-indazol-7-yl)-7-(4-chloro-2-fluorophenyl)-4-oxo-3,4-dihydropyrido[2,3-d]pyrimidin-2-yl)-2-(3,5-difluorophenyl)ethyl)-2-((3bS,4aR)-3-(difluoromethyl)-5,5-difluoro-3b,4,4a,5-tetrahydro-1H-cyclopropa[3,4]cyclopenta[1,2-c]pyrazol-1-yl)acetamide] | > 20000 | 0.067 |
| Cn1nc(NS(C)(=O)=O)c2c(Cl)ccc(-n3c([C@H](Cc4cc(F)cc(F)c4)NC(=O)Cn4nc(C(F)F)c5c4C(F)(F)[C@@H]4C[C@H]54)nc4cc(-c5ccccc5F)cnc4c3=O)c21 (atropisomer, axis not shown; (P)) [Example 38, N—((S)-1-((3P)-3-(4-chloro-1-methyl-3-(methylsulfonamido)-1H-indazol-7-yl)-7-(2-fluorophenyl)-4-oxo-3,4-dihydropyrido[3,2-d]pyrimidin-2-yl)-2-(3,5-difluorophenyl)ethyl)-2-((3bS,4aR)-3-(difluoromethyl)-5,5-difluoro-3b,4,4a,5-tetrahydro-1H-cyclopropa[3,4]cyclopenta[1,2-c]pyrazol-1-yl)acetamide] | > 500 | 1.9 |
| CS(=O)(=O)Nc1nn(CC(F)(F)F)c2c(-n3c([C@H](Cc4cc(F)cc(F)c4)NC(=O)Cn4ccc(C5CC5)n4)nc4nc(-c5ccccc5F)ccc4c3=O)ccc(Cl)c12 (atropisomer, axis not shown; (P)) [Example 36, (S)—N-(1-((3P)-3-(4-chloro-3-(methylsulfonamido)-1-(2,2,2-trifluoroethyl)-1H-indazol-7-yl)-7-(2-fluorophenyl)-4-oxo-3,4-dihydropyrido[2,3-d]pyrimidin-2-yl)-2-(3,5-difluorophenyl)ethyl)-2-(3-cyclopropyl-1H-pyrazol-1-yl)acetamide] | > 500 | 0.16 |
| Cn1nc(NS(C)(=O)=O)c2c(Cl)ccc(-n3c([C@H](Cc4cc(F)cc(F)c4)NC(=O)Cn4nc(C(F)F)c5c4C(F)(F)[C@@H]4C[C@H]54)nc4nc(-c5cc(F)ccc5F)ccc4c3=O)c21 (atropisomer, axis not shown; (P)) [Example 9, N—((S)-1-((3P)-3-(4-chloro-1-methyl-3-(methylsulfonamido)-1H-indazol-7-yl)-7-(2,5-difluorophenyl)-4-oxo-3,4-dihydropyrido[2,3-d]pyrimidin-2-yl)-2-(3,5-difluorophenyl)ethyl)-2-((3bS,4aR)-3-(difluoromethyl)-5,5-difluoro-3b,4,4a,5-tetrahydro-1H-cyclopropa[3,4]cyclopenta[1,2-c]pyrazol-1-yl)acetamide] | > 500 | 0.12 |
| CS(=O)(=O)Nc1nn(CC(F)F)c2c(-n3c([C@H](Cc4cc(F)cc(F)c4)NC(=O)Cn4ccc(C5CC5)n4)nc4nc(-c5ccccc5F)ccc4c3=O)ccc(Cl)c12 (atropisomer, axis not shown; (P)) [Example 33, (S)—N-(1-((3P)-3-(4-chloro-1-(2,2-difluoroethyl)-3-(methylsulfonamido)-1H-indazol-7-yl)-7-(2-fluorophenyl)-4-oxo-3,4-dihydropyrido[2,3-d]pyrimidin-2-yl)-2-(3,5-difluorophenyl)ethyl)-2-(3-cyclopropyl-1H-pyrazol-1-yl)acetamide] | > 500 | 0.15 |
| Cn1nc(NS(C)(=O)=O)c2c(Cl)ccc(-n3c([C@H](Cc4cc(F)cc(F)c4)NC(=O)Cn4nc(C(F)F)c5c4C(F)(F)[C@@H]4C[C@H]54)nc4nc(-c5cccc(S(C)(=O)=O)c5)ccc4c3=O)c21 (atropisomer, axis not shown; (P)) [Example 23, N—((S)-1-((3P)-3-(4-chloro-1-methyl-3-(methylsulfonamido)-1H-indazol-7-yl)-7-(3-(methylsulfonyl)phenyl)-4-oxo-3,4-dihydropyrido[2,3-d]pyrimidin-2-yl)-2-(3,5-difluorophenyl)ethyl)-2-((3bS,4aR)-3-(difluoromethyl)-5,5-difluoro-3b,4,4a,5-tetrahydro-1H-cyclopropa[3,4]cyclopenta[1,2-c]pyrazol-1-yl)acetamide] | > 100 | 0.065 |
| Cn1nc(NS(C)(=O)=O)c2c(Cl)ccc(-n3c([C@H](Cc4cc(F)cc(F)c4)NC(=O)Cn4nc(C(F)F)c5c4C(F)(F)[C@@H]4C[C@H]54)nc4nc(-c5ccc(F)cc5F)ccc4c3=O)c21 (atropisomer, axis not shown; (P)) [Example 39, N—((S)-1-((3P)-3-(4-chloro-1-methyl-3-(methylsulfonamido)-1H-indazol-7-yl)-7-(2,4-difluorophenyl)-4-oxo-3,4-dihydropyrido[2,3-d]pyrimidin-2-yl)-2-(3,5-difluorophenyl)ethyl)-2-((3bS,4aR)-3-(difluoromethyl)-5,5-difluoro-3b,4,4a,5-tetrahydro-1H-cyclopropa[3,4]cyclopenta[1,2-c]pyrazol-1-yl)acetamide] | > 500 | 0.047 |

— US20220089598A1, “INHIBITORS OF HUMAN IMMUNODEFICIENCY VIRUS REPLICATION” (VIIV HEALTHCARE UK (No. 5) LIMITED, priority 2018, published 2022)
